Consider 6 compounds from patent US7148236B2, “Modulators of acetylcholine receptors” (Merck & Co., Inc., priority 2002, dated 2006).

`CN1[C@@H]2CC[C@H]1C[C@H](Sc1ccc3[nH]c(=O)[nH]c3c1)C2`: the melting point (in general, the temperature, or range, at which the solid turns liquid) was 178.5 to 181.6 °C.
Then `CN1[C@@H]2CC[C@H]1C[C@H](Sc1ccc3[nH]c(=O)[nH]c(=O)c3c1)C2`, with above 260 °C.
The figure for `CCCn1c(=S)[nH]c2ccc(S[C@@H]3C[C@H]4CC[C@@H](C3)N4C)c(Cl)c21` is 131.4 to 133.9 °C; for `CC(C)n1c(=S)[nH]c2ccc(S[C@@H]3C[C@H]4CC[C@@H](C3)N4C)c(Cl)c21` it is 228.9 to 230.9 °C; for `CN1[C@@H]2CC[C@H]1C[C@H](Sc1ccc3[nH]c(=O)n(C)c3c1Cl)C2.Cl` it is above 260 °C.
Then `CN1[C@@H]2CC[C@H]1C[C@H](Sc1cc3c(cc1Cl)[nH]c(=O)n3C)C2`, with 206.4 to 207.2 °C.
